Where “and” joins values, the source holds several entries; their conditions need not be identical. Identical values can stand only once.
What was measured:
Assay in all cases: cells
QIMR-WIL = type: functional, cell-based; settings: Homo sapiens;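 note: growth inhibition of QIMR-WIL cells, read out with a cell viability assay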
Description: SANGER: Inhibition of human QIMR-WIL cell growth in a cell viability assay.

G-401 = type: functional, cell-based, Homo sapiens
Description: SANGER: Inhibition of human G-401 cell growth in a cell viability assay.

HOS = type: functional, cell-based, Homo sapiens;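 note: growth inhibition of human HOS cells, read out with a cell viability assay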
Description: SANGER: Inhibition of human HOS cell growth in a cell viability assay.

SF-268 = type: functional, cell-based, Homo sapiens;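 note: growth inhibition of SF-268 cells determined with a cell viability assay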
Description: SANGER: Inhibition of human SF268 cell growth in a cell viability assay.

LCLC-103H cell line = type: functional, cell-based, Homo sapiens
Description: SANGER: Inhibition of human LCLC-103H cell growth in a cell viability assay.

CAL-120 = type: functional, cell-based, Homo sapiens;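 note: cell growth inhibition, read out as cell viability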
Description: SANGER: Inhibition of human CAL-120 cell growth in a cell viability assay.

KLE = type: functional, cell-based, Homo sapiens;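 note: growth inhibition of human KLE cells, read out with a cell viability assay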
Description: SANGER: Inhibition of human KLE cell growth in a cell viability assay.

NCI-H1755 = type: functional, cell-based, Homo sapiens;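 note: cell viability readout used to measure growth inhibition of NCI-H1755 cells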
Description: SANGER: Inhibition of human NCI-H1755 cell growth in a cell viability assay.

ME-180 = type: functional, cell-based; settings: Homo sapiens;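 note: cell viability assay measuring growth inhibition of ME-180 cells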
Description: SANGER: Inhibition of human ME-180 cell growth in a cell viability assay.

NCI-H1395 = type: functional, cell-based, Homo sapiens;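 note: cell viability assay read-out quantifying reduced proliferation of human NCI-H1395 cells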
Description: SANGER: Inhibition of human NCI-H1395 cell growth in a cell viability assay.

NCI-H2087 = type: functional, cell-based, Homo sapiens;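 note: growth inhibition determined with a cell viability readout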
Description: SANGER: Inhibition of human NCI-H2087 cell growth in a cell viability assay.

Huh-7 = type: functional, cell-based, Homo sapiens;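 note: HuH-7 cell growth inhibition, read out with a cell viability assay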
Description: SANGER: Inhibition of human HuH-7 cell growth in a cell viability assay.

COLO-668 = type: functional, cell-based, Homo sapiens
Description: SANGER: Inhibition of human COLO-668 cell growth in a cell viability assay.

SW948 = type: functional, cell-based, Homo sapiens;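 note: growth inhibition of SW948 cells, read out with a cell viability assay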
Description: SANGER: Inhibition of human SW948 cell growth in a cell viability assay.

KYSE-270 = type: functional, cell-based, Homo sapiens;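 note: cell growth inhibition measured with a viability assay in the human KYSE-270 line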
Description: SANGER: Inhibition of human KYSE-270 cell growth in a cell viability assay.

KYSE-150 cell line = type: functional, cell-based, Homo sapiens;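 note: growth inhibition of human KYSE-150 cells, read out with a cell viability assay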
Description: SANGER: Inhibition of human KYSE-150 cell growth in a cell viability assay.

LU-134-A = type: functional, cell-based; settings: Homo sapiens
Description: SANGER: Inhibition of human LU-134-A cell growth in a cell viability assay.

IST-MEL1 = type: functional, cell-based, Homo sapiens;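 note: growth inhibition of the cell line, read out with a cell viability assay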
Description: SANGER: Inhibition of human IST-MEL1 cell growth in a cell viability assay.

HCC1419 = type: functional, cell-based, Homo sapiens;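 note: growth inhibition of human HCC1419 cells, read out as cell viability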
Description: SANGER: Inhibition of human HCC1419 cell growth in a cell viability assay.

NCI-H2126 = type: functional, cell-based, Homo sapiens;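 note: growth inhibition of the cancer cell line, determined with a cell viability readout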
Description: SANGER: Inhibition of human NCI-H2126 cell growth in a cell viability assay.

SW1573 = type: functional, cell-based, Homo sapiens;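 note: growth inhibition of SW1573 cells, read out with a cell viability assay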
Description: SANGER: Inhibition of human SW1573 cell growth in a cell viability assay.

NCI-H2452 = type: functional, cell-based, Homo sapiens;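 note: growth inhibition of NCI-H2452 cells, read out with a cell viability assay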
Description: SANGER: Inhibition of human NCI-H2452 cell growth in a cell viability assay.

Ramos-2G6-4C10 = type: functional, cell-based; settings: Homo sapiens;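 note: growth inhibition of the cell line, measured by a cell viability read-out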
Description: SANGER: Inhibition of human Ramos-2G6-4C10 cell growth in a cell viability assay.

RH-1 = type: functional, cell-based, Homo sapiens;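 note: growth inhibition of human RH-1 cells, read out with a cell viability assay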
Description: SANGER: Inhibition of human RH-1 cell growth in a cell viability assay.

MC-IXC = type: functional, cell-based, Homo sapiens;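 note: growth inhibition of MC-IXC cells, read out with a cell viability assay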
Description: SANGER: Inhibition of human MC-IXC cell growth in a cell viability assay.

NCI-H1092 = type: functional, cell-based; settings: Homo sapiens;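 note: cell growth inhibition measured with a cell viability assay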
Description: SANGER: Inhibition of human NCI-H1092 cell growth in a cell viability assay.

LS-513 = type: functional, cell-based, Homo sapiens
Description: SANGER: Inhibition of human LS-513 cell growth in a cell viability assay.

COR-L23 = type: functional, cell-based, Homo sapiens;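 note: cell viability assay measuring how strongly compounds suppress growth of COR-L23 cells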
Description: SANGER: Inhibition of human COR-L23 cell growth in a cell viability assay.

EFO-21 = type: functional, cell-based, Homo sapiens;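 note: growth inhibition of EFO-21 cells measured with a viability assay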
Description: SANGER: Inhibition of human EFO-21 cell growth in a cell viability assay.

U-87 MG = type: functional, cell-based, U-87MG ATCC; settings: Homo sapiens;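 note: growth inhibition of the cells measured with a viability assay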
Description: SANGER: Inhibition of human U-87-MG cell growth in a cell viability assay.

SW1783 = type: functional, cell-based; settings: Homo sapiens;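 note: cell growth inhibition measured with a viability assay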
Description: SANGER: Inhibition of human SW1783 cell growth in a cell viability assay.

CAL-51 = type: functional, cell-based, Homo sapiens;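 note: human CAL-51 cell line, growth inhibition read out via a cell viability assay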
Description: SANGER: Inhibition of human CAL-51 cell growth in a cell viability assay.

A388 = type: functional, cell-based, Homo sapiens;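 note: growth inhibition of human A388 cells, read out with a cell viability assay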
Description: SANGER: Inhibition of human A388 cell growth in a cell viability assay.

MG-63 = type: functional, cell-based, Homo sapiens;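 note: growth inhibition of human MG-63 cells, read out with a cell viability assay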
Description: SANGER: Inhibition of human MG-63 cell growth in a cell viability assay.

SK-MEL-30 = type: functional, cell-based; settings: Homo sapiens;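 note: growth inhibition of SK-MEL-30 cells, determined with a cell viability assay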
Description: SANGER: Inhibition of human SK-MEL-30 cell growth in a cell viability assay.

SW684 = type: functional, cell-based, Homo sapiens;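 note: growth inhibition of human SW684 cells, measured by a cell viability assay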
Description: SANGER: Inhibition of human SW684 cell growth in a cell viability assay.

NCI-H747 = type: functional, cell-based; settings: Homo sapiens;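 note: growth inhibition of human NCI-H747 cells, read out by a cell viability assay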
Description: SANGER: Inhibition of human NCI-H747 cell growth in a cell viability assay.

COLO-741 = type: functional, cell-based, Homo sapiens
Description: SANGER: Inhibition of human COLO-741 cell growth in a cell viability assay.

P30-OHK = type: functional, cell-based; settings: Homo sapiens;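 note: growth inhibition of the P30-OHK cell line, read out with a cell viability assay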
Description: SANGER: Inhibition of human P30-OHK cell growth in a cell viability assay.

NCI-H1793 = type: functional, cell-based, Homo sapiens;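 note: cell growth inhibition, read out by a cell viability assay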
Description: SANGER: Inhibition of human NCI-H1793 cell growth in a cell viability assay.

ES4 = type: functional, cell-based, Homo sapiens;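 note: growth inhibition of human ES4 cells, read out by a cell viability assay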
Description: SANGER: Inhibition of human ES4 cell growth in a cell viability assay.

GCT = type: functional, cell-based, Homo sapiens;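 note: GCT cell line proliferation inhibition, read out with a cell viability assay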
Description: SANGER: Inhibition of human GCT cell growth in a cell viability assay.

C8166 = type: functional, cell-based; settings: Homo sapiens;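 note: growth inhibition of human C8166 cells measured by a cell viability assay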
Description: SANGER: Inhibition of human C8166 cell growth in a cell viability assay.

A-375 = type: functional, cell-based, Homo sapiens;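 note: growth inhibition of A375 cells, read out with a cell viability assay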
Description: SANGER: Inhibition of human A375 cell growth in a cell viability assay.

OVCAR-5 = type: functional, cell-based, Homo sapiens;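 note: growth inhibition of human OVCAR-5 cells, read out with a cell viability assay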
Description: SANGER: Inhibition of human OVCAR-5 cell growth in a cell viability assay.

T-24 = type: functional, cell-based, Homo sapiens;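 note: growth inhibition of T-24 cells, read out with a cell viability assay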
Description: SANGER: Inhibition of human T-24 cell growth in a cell viability assay.

639-V = type: functional, cell-based, Homo sapiens;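 note: growth inhibition of 639-V cells, read out with a cell viability assay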
Description: SANGER: Inhibition of human 639-V cell growth in a cell viability assay.

IGR-1 = type: functional, cell-based, Homo sapiens;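 note: growth inhibition of human IGR-1 cells, read out with a cell viability assay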
Description: SANGER: Inhibition of human IGR-1 cell growth in a cell viability assay.

PA-1 = type: functional, cell-based, Homo sapiens;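 note: IC50 for suppression of PA-1 cell proliferation, determined with a cell viability read-out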
Description: SANGER: Inhibition of human PA-1 cell growth in a cell viability assay.

SK-NEP-1 = type: functional, cell-based; settings: Homo sapiens;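 note: growth inhibition of human SK-NEP-1 cells, read out by a cell viability assay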
Description: SANGER: Inhibition of human SK-NEP-1 cell growth in a cell viability assay.

SW1417 = type: functional, cell-based, Homo sapiens; settings: sw1417;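 note: growth inhibition of human SW1417 cells, read out with a cell viability assay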
Description: SANGER: Inhibition of human SW1417 cell growth in a cell viability assay.

`COC(=O)CNC(=O)C(=O)OC` was tested, and the IC50 (QIMR-WIL) was 424 µM, the IC50 (G-401; Homo sapiens, G-401) was 1460 µM and the IC50 (HOS; Homo sapiens, HOS) was 636 µM. The IC50 (SF-268; Homo sapiens, SF-268) was 414 µM, the IC50 (LCLC-103H cell line; Homo sapiens, LCLC-103H) was 880 µM and the IC50 (CAL-120; Homo sapiens, CAL-120) was 806 µM. For the same compound, the IC50 (KLE; Homo sapiens, KLE) was 1580 µM, the IC50 (NCI-H1755; Homo sapiens, NCI-H1755) was 2740 µM and the IC50 (ME-180) was 257 µM. The IC50 (NCI-H1395; Homo sapiens, NCI-H1395) was over 4000 µM, the IC50 (NCI-H2087; Homo sapiens, NCI-H2087) was 108 µM and the IC50 (Huh-7; Homo sapiens, Huh-7) was 61.7 µM. The IC50 (COLO-668; Homo sapiens, COLO-668) was 93.8 µM, the IC50 (SW948; Homo sapiens, SW948) was 2620 µM and the IC50 (KYSE-270; Homo sapiens, KYSE-270) was 275 µM. It also gave an IC50 (KYSE-150 cell line; Homo sapiens, KYSE-150) of 1330 µM, an IC50 (LU-134-A) of over 4000 µM and an IC50 (IST-MEL1; Homo sapiens, IST-MEL1) of 573 µM. It also gave an IC50 (HCC1419; Homo sapiens, HCC1419) of over 4000 µM, an IC50 (NCI-H2126; Homo sapiens, NCI-H2126) of 1800 µM and an IC50 (SW1573; Homo sapiens, SW1573) of 2520 µM. For the same compound, the IC50 (NCI-H2452; Homo sapiens, NCI-H2452) was 966 µM, the IC50 (Ramos-2G6-4C10) was 100 µM and the IC50 (RH-1; Homo sapiens, RH-1) was 1360 µM. The IC50 (MC-IXC; Homo sapiens, MC-IXC) was 96.7 µM, the IC50 (NCI-H1092) was 1200 µM and the IC50 (LS-513; Homo sapiens, LS-513) was 1850 µM. The IC50 (COR-L23; Homo sapiens, COR-L23) was 1880 µM, the IC50 (EFO-21; Homo sapiens, EFO-21) was 260 µM and the IC50 (U-87 MG) was 147 µM. For the same compound, the IC50 (SW1783) was 156 µM, the IC50 (CAL-51; Homo sapiens, CAL-51) was 238 µM and the IC50 (A388; Homo sapiens, A388) was 2460 µM. The IC50 (MG-63; Homo sapiens, MG-63) was 144 µM, the IC50 (SK-MEL-30) was 626 µM and the IC50 (SW684; Homo sapiens, SW684) was 2470 µM. The IC50 (NCI-H747) was over 4000 µM, the IC50 (COLO-741; Homo sapiens, COLO-741) was over 4000 µM and the IC50 (P30-OHK) was 467 µM. The IC50 (NCI-H1793; Homo sapiens, NCI-H1793) was 2950 µM, the IC50 (ES4; Homo sapiens, ES4) was 1150 µM and the IC50 (GCT; Homo sapiens, GCT) was over 4000 µM. It also gave an IC50 (C8166) of 1040 µM, an IC50 (A-375; Homo sapiens, A-375) of 176 µM and an IC50 (OVCAR-5; Homo sapiens, OVCAR-5) of 458 µM. It also gave an IC50 (T-24; Homo sapiens, T-24) of over 4000 µM, an IC50 (639-V; Homo sapiens, 639-V) of 1520 µM and an IC50 (IGR-1; Homo sapiens, IGR-1) of 1650 µM. For the same compound, the IC50 (PA-1; Homo sapiens, PA-1) was 120 µM and the IC50 (SK-NEP-1) was 976 µM.

With `Cc1cc([C@@H](C)Nc2ccccc2C(=O)O)c2nc(N3CCOCC3)cc(=O)n2c1` [AZD-6482] the IC50 (QIMR-WIL) was 3.97 µM, the IC50 (G-401; g-401) was 4.07 µM and > 5.12 µM and the IC50 (HOS; hos) was over 5.12 µM. The IC50 (SF-268; sf-268) was over 5.12 µM, the IC50 (LCLC-103H cell line; Homo sapiens, LCLC-103H) was over 5.12 µM and the IC50 (LCLC-103H cell line; lclc-103h) was over 5.12 µM. The IC50 (CAL-120; cal-120) was over 5.12 µM, the IC50 (KLE; kle) was over 5.12 µM and the IC50 (NCI-H1755; Homo sapiens, NCI-H1755) was 3.27 µM. It also gave an IC50 (NCI-H1755; nci-h1755) of 3.31 µM, an IC50 (ME-180) of over 5.12 µM and an IC50 (NCI-H1395; nci-h1395) of over 5.12 µM. For the same compound, the IC50 (NCI-H2087; Homo sapiens, NCI-H2087) was over 5.12 µM, the IC50 (NCI-H2087; nci-h2087) was over 5.12 µM and the IC50 (Huh-7; Homo sapiens, Huh-7) was over 5.12 µM. For the same compound, the IC50 (Huh-7; huh-7) was over 5.12 µM, the IC50 (COLO-668; colo-668) was over 5.12 µM and the IC50 (SW948; sw948) was over 5.12 µM. For the same compound, the IC50 (KYSE-270; kyse-270) was over 5.12 µM, the IC50 (KYSE-150 cell line; kyse-150) was over 5.12 µM and the IC50 (LU-134-A) was over 5.12 µM. The IC50 (IST-MEL1; ist-mel1) was 2.52 µM and > 5.12 µM, the IC50 (HCC1419; hcc1419) was over 5.12 µM and the IC50 (NCI-H2126; nci-h2126) was over 5.12 µM. The IC50 (SW1573; sw1573) was over 5.12 µM, the IC50 (NCI-H2452; nci-h2452) was over 5.12 µM and the IC50 (Ramos-2G6-4C10) was over 5.12 µM. The IC50 (RH-1; rh-1) was over 5.12 µM, the IC50 (MC-IXC; Homo sapiens, MC-IXC) was over 5.12 µM and the IC50 (MC-IXC; mc-ixc) was over 5.12 µM. The IC50 (NCI-H1092) was over 5.12 µM, the IC50 (LS-513; Homo sapiens, LS-513) was over 5.12 µM and the IC50 (LS-513; ls-513) was over 5.12 µM. For the same compound, the IC50 (COR-L23; cor-l23) was over 5.12 µM, the IC50 (EFO-21; efo-21) was 5.04 µM and > 5.12 µM and the IC50 (U-87 MG) was over 5.12 µM. For the same compound, the IC50 (SW1417) was over 5.12 µM, the IC50 (CAL-51; cal-51) was over 5.12 µM and the IC50 (A388; a388) was over 5.12 µM. The IC50 (MG-63; mg-63) was > 5.12 µM and 1.59 µM, the IC50 (SK-MEL-30) was over 5.12 µM and the IC50 (SW684; Homo sapiens, SW684) was over 5.12 µM. It also gave an IC50 (SW684; sw684) of over 5.12 µM, an IC50 (NCI-H747) of over 5.12 µM and an IC50 (COLO-741; colo-741) of over 5.12 µM. For the same compound, the IC50 (P30-OHK) was 1.07 µM, the IC50 (NCI-H1793; nci-h1793) was over 5.12 µM and the IC50 (ES4; es4) was over 5.12 µM. It also gave an IC50 (GCT; gct) of over 5.12 µM, an IC50 (C8166) of over 5.12 µM and an IC50 (A-375; a-375) of over 5.12 µM. For the same compound, the IC50 (OVCAR-5; ovcar-5) was over 5.12 µM, the IC50 (T-24; t-24) was over 5.12 µM and the IC50 (639-V; 639-v) was 1.63 µM and 4.78 µM. For the same compound, the IC50 (IGR-1; igr-1) was over 5.12 µM, the IC50 (PA-1; pa-1) was > 5.12 µM and 2.43 µM and the IC50 (SK-NEP-1) was over 5.12 µM.

— ChEMBL document CHEMBL1201861, “Genomics of Drug Sensitity in Cancer screening data, Wellcome Trust Sanger Institute”
